Reference: patent publication US20240376154A1, “BIS-INTERCALATING PEPTIDES, CONJUGATES AND METHODS OF USE” (ZYMEWORKS BC INC., priority 2023, published 2024)

Details: amide bond; 32-membered ring

Work on “Benzyl tert-butyl ((4aS,8R,14aS,23S,27R,33aS)-23-isopropyl-19,22,38-trimethyl-5,9,15,18,21,24,28,34,37,40-decaoxotetracontahydro-11H-tripyrido[1,2-a:1′,2′-j:1″,2″-q][1,4,7,10,13,17,20,23,26,29]decaazacyclodotriacontine-8,27-diyl)dicarbamate” yielded a ring closure, isolated yield of 64%.
“Benzyl tert-butyl ((5aS,9R,15aS,24S,28R,34aS)-24-isopropyl-20,23,39-trimethyl-6,10,16,19,22,25,29,35,38,41-decaoxotetracontahydro-1H,12H-azepino[1,2-j]dipyrido[1,2-a:1′,2′-q][1,4,7,10,13,17,20,23,26,29]decaazacyclodotriacontine-9,28-diyl)dicarbamate” gave a ring closure, isolated yield of 22%.
For “Benzyl tert-butyl ((7R,8R,11S,19aS,26R,30S,38aS)-11,30-di((S)-sec-butyl)-8,12,15,31,34-pentamethyl-6,10,13,16,19,25,29,32,35,38-decaoxotetratriacontahydro-2H,6H,10H-dipyrido[2,1-b1: 2′,1′-l][1]oxa[4,7,10,13,17,20,23,26,29]nonaazacyclodotriacontine-7,26-diyl)dicarbamate”, the ring closure, isolated yield was 71%.
Substance “Benzyl tert-butyl ((7R,10aS,22aS,29R,32aS,44aS)-6,10,16,22,28,32,38,44-octaoxotetracontahydro-2H,19H-tetrapyrido[1,2-a1: 1′,2′-d: 1″,2″-k: 1′″,2′″-t][1,17]dioxa[4,7,11,14,20,23,27,30]octaazacyclodotriacontine-7,29-diyl)dicarbamate” has a ring closure, isolated yield of 44%.
For “Benzyl tert-butyl ((7R,10aS,23aS,30R,33aS,46aS)-19,42-dimethyl-6,10,17,20,23,29,33,40,43,46-decaoxotetratetracontahydro-6H,29H-bis(azepino)[1,2-j:1′,2′-z]dipyrido[1,2-a:1′,2′-q][1,4,7,10,13,17,20,23,26,29]decaazacyclodotriacontine-7,30-diyl)dicarbamate”, the ring closure, isolated yield was 74%.
In the case of “Benzyl tert-butyl ((7R,11S,19aS,26R,30S,38aS)-11,15,30,34-tetraisopropyl-12,31-dimethyl-6,10,13,16,19,25,29,32,35,38-decaoxohexatriacontahydro-2H,6H-dipyrido[1,2-a:1′,2′-q][1,4,7,10,13,17,20,23,26,29]decaazacyclodotriacontine-7,26-diyl)dicarbamate”, the ring closure, isolated yield is reported as 94%.
Work on “Benzyl tert-butyl ((7R,11S,19aS,26R,30S,38aS)-11,30-di((S)-sec-butyl)-12,15,31,34-tetramethyl-6,10,13,16,19,25,29,32,35,38-decaoxohexatriacontahydro-2H,6H-dipyrido[1,2-a:1′,2′-q][1,4,7,10,13,17,20,23,26,29]decaazacyclodotriacontine-7,26-diyl)dicarbamate” yielded a ring closure, isolated yield of 90%.
Work on “Benzyl tert-butyl ((7R,11S,19aS,26R,30S,38aS)-11,30-dicyclohexyl-12,15,31,34-tetramethyl-6,10,13,16,19,25,29,32,35,38-decaoxohexatriacontahydro-2H,6H-dipyrido[1,2-a:1′,2′-q][1,4,7,10,13,17,20,23,26,29]decaazacyclodotriacontine-7,26-diyl)dicarbamate” yielded a ring closure, isolated yield of 72%.
“Benzyl tert-butyl ((7R,11S,19aS,26R,30S,38aS)-11,30-diisopropyl-12,15,31,34-tetramethyl-6,10,13,16,19,25,29,32,35,38-decaoxohexatriacontahydro-2H,6H-dipyrido[1,2-a:1′,2′-q][1,4,7,10,13,17,20,23,26,29]decaazacyclodotriacontine-7,26-diyl)dicarbamate” showed a ring closure, isolated yield of 69%.
For “Benzyl tert-butyl ((7R,11S,19aS,26R,30S,38aS)-11,30-diisopropyl-12,15,31,34-tetramethyl-6,10,13,16,19,25,29,32,35,38-decaoxotetratriacontahydro-2H,6H,10H-dipyrido[2,1-b1: 2′,1′-l][1]oxa[4,7,10,13,17,20,23,26,29]nonaazacyclodotriacontine-7,26-diyl)dicarbamate”, the ring closure, isolated yield was 63%.
